Test results taken from patent US20250170124A1, “METHODS OF DIAGNOSING AND TREATING NEURODEGENERATIVE DISEASES” (The General Hospital Corporation, priority 2022, published 2025).
Like-named read-outs stand apart in the source and are kept apart here.

Tests used:
[1] = test system: PrP-5′UTR (prion protein IRE); type: cell-based, human; conditions: versus SNCA 5′UTR
PGL3 5′UTR = assay: Secondary (counterscreen) luciferase assay in H4-C cells, IRE stem-loop removed; type: cell-based, human; conditions: versus SNCA 5′UTR
[2] = test system: alpha-synuclein 5′-UTR IRE (SNCA 5′UTR); assay: Primary screen/retest: ASYN 5′-UTR IRE-driven luciferase expression in H4 cells; type: cell-based, human; conditions: Homo sapiens, 48 h
alpha-synuclein = assay: ELISA secondary screen for alpha-synuclein in SH-SY5Y cells; type: cell-based, human; design: Decrease syn(%) SHSY5Y cells: unit of the concentration uncertain; conditions: for Decrease syn(%) SHSY5Y cells: Table 3; for Decrease αsyn(%) SHSY5Y cells: Table 2
Description: FIG. 2 illustrates the results of ELISA experiments with compound 10 in SH-SY5Y cells. […]
FIG. 18 illustrates alpha Synuclein ELISA (Invitrogen) measurements from SHSY5 undifferentiated neurons treated with the indicated doses (triplicate wells) of compounds 2, 13, 11, 14, 15, and 16) for 48 h.
A human ASYN ELISA kit was utilized for all ELISA experiments (Invitrogen alpha-synuclein ELISA kit KHB0061) and the kit protocol was followed.
1) Plate SH-SY5Y […] cells (Corning, 3570) at 10,000 cells/well in 50 μL phenol red free media (phenol red-free DMEM with 4.5 g/L D-glucose [Lonza, 12-917F] supplemented with 10% FBS [Lonza, 14-503E], 200 μM L-glutamine [Lonza, 17-605E], 100 μM penstrep [Lonza, 17-602E] and 200 μg/mL geneticin [Invitrogen, 10131-027]).
2) Lid plates, then incubate cells for 24 hours at 37° C., 5% CO2, 95% humidity in a tissue culture incubator.
3) Pin 100 nL of each compound into the assay plates spanning a final concentration range from 100-0.006 μM.
4) Incubate plates for 48 h at 37° C., 5% CO2, 95% humidity. Following incubation, add 5 μL of Alamar blue solution per well and allow to incubate for 1 h at 37° C., 5% CO2, 95% humidity.
5) Read Alamar blue fluorescence using a Thermo Varioskan (570 nm excitation, 585 nm emission). Remove cell media and add 30 μL cell lysis solution with protease inhibitor (G Biosciences, 786-331; 10 μL/mL).
6) Place plates on a plate shaker for 1 h, before removing 20 μL lysate. Transfer cell lysates to 500 μL Eppendorf tubes and centrifuge (Eppendorf Centrifuge 5417C) for 10 min at 13,000 rpm.
7) Add 12 μL of the cell supernatant to 48 μL of standard diluent buffer (1:5). Add these samples to ELISA plate wells. Prepare ASYN standard curve wells as described in the kit manual.
8) Add 50 μL of anti-α-Synuclein (Detection Antibody) solution to each well, tapping the plate to mix. Cover the plate with a tape seal and incubate for 3 h at RT.
9) Wash wells four times with wash buffer using a multichannel pipette and add 100 μL of anti-rabbit IgG-HRP antibody solution to each well. Cover the plate and incubate for 30 min at RT. Wash wells four times with wash buffer and add 100 μL of Stabilized Chromogen to each well. Seal the plate and incubate in the dark at RT for 30 min.
10) Finally, add 100 μL of Stop Solution to each well, tapping the plate to mix, and read absorbance at 450 nm using an Envision plate reader (Perkin Elmer).

SNCA IRE = assay: Spinach fluorescent assay, SNCA IRE fluorescence sensor R7
α-Synuclein [3] = assay: Western blots of α-syn in iPSC derived DA neuron lysates; type: cell-based, human; conditions: 72 h; for inhibition of α-Synuclein protein expression versus β-Syn, γ-Syn, Ferritin, APP and Prion proteins: 1 μM, normalized to β-Actin; for α-syn levels (Western blot): 10 μM and 1 μM compound, β-actin standardized, N=3
α-Syn = assay: Decrease of α-syn in Triple SNCA cortical neurons; conditions: Table 2; concentration not given
α-Synuclein [4] = assay: Decrease of α-syn in iPSC derived DA neurons; type: cell-based, human; design: Decrease syn(%) DA neurons: dose or concentration left out as unconfirmed; conditions: for Decrease αsyn(%) DA neurons: Table 2, @ 1 μM; for Decrease syn(%) DA neurons: Table 3
[5] = Table 3, H4 cells, luciferase, read-out: IC50/M (SNCA 5′UTR)
[6] = Table 2, H4 cells, luciferase, read-out: IC50/μM (SNCA 5′UTR)

Question: What does the source list for `CCC1=Nc2cc(C(=O)NCCCOC)ccc2Sc2ccccc21` [Compound 16, 11-ethyl-N˜8˜-(3-methoxypropyl)dibenzo[b,f][1,4]thiazepine-8-carboxamide]?
Answer: Selectivity PrP-5′UTR ([1]; Table 3): 127-fold; Selectivity PGL3 5′UTR (PGL3 5′UTR; Table 3): 68-fold; IC50 [2, 5]: 0.127 µM; Decrease syn(%) SHSY5Y cells (alpha-synuclein; @ 1 µM): 30-60 @ 1M^ %

Question: Which “Selectivity PrP-5′UTR” value ([1]; Table 3) does the source give for `COc1cccc(N2CCN(C(=O)c3ccc(C[S+]([O-])c4ccc(C)cc4)o3)CC2)c1` (stereo not drawn) [Compound 11, 1-(3-Methoxyphenyl)-4-(5-{[(4-methylphenyl)sulfinyl]methyl}-2-furoyl)piperazine] here?
Answer: Its value is 126-fold.

Question: What about the “Selectivity PGL3 5′UTR” value (PGL3 5′UTR; Table 3) of the same compound?
Answer: The value was 58-fold.

Question: What about the IC50 [2, 5] of the same compound?
Answer: The IC50 was 0.1 µM.

Question: What about the “Decrease syn(%) SHSY5Y cells” value (alpha-synuclein; @ 1 µM) of the same compound?
Answer: Its value is 14-28 @ 1M^ %.

Question: And the “binding to SNCA IRE (fluorescence of sensor R7)” value (SNCA IRE)?
Answer: Its value is “binds strongly”.

Question: Which results are given for `Cc1cc(C)cc(Nc2nc3ccc(C)cc3n3cnnc23)c1` [Compound 4, N-(3,5-dimethylphenyl)-8-methyl-[1,2,4]triazolo[4,3-a]quinoxalin-4-amine]?
Answer: Selectivity PrP-5′UTR ([1]; Table 2): 18-fold; Selectivity PGL3 5′UTR (PGL3 5′UTR; Table 2): 43-fold; IC50 [2, 6]: 2.8 µM; Decrease αsyn(%) SHSY5Y cells (alpha-synuclein; @ 1 μM): 25-50 @ 1%

Question: Which “Selectivity PrP-5′UTR” value ([1]; Table 3) does the source give for `O=C(c1ccc(C[S+]([O-])c2ccccc2Cl)o1)N1CCN(c2ccccc2)CC1` (stereo not drawn) [Compound 12, 1-(5-{[(2-Chlorophenyl)sulfinyl]methyl}-2-furoyl)-4-phenylpiperazine] here?
Answer: Its value is “Inc”.

Question: And the “Selectivity PGL3 5′UTR” value (PGL3 5′UTR; Table 3)?
Answer: Its value is 80-fold.

Question: What about the IC50 [2, 5] of the same compound?
Answer: Its IC50 is 0.1 µM.

Question: What about the “Decrease syn(%) SHSY5Y cells” value (alpha-synuclein; @ 0.1-1M) of the same compound?
Answer: The value was 21-42 @ 0.1-1M %.

Question: What does the source list for `COc1ccc(/C=C/C(=O)c2cc(F)ccc2OC(=O)c2ccccc2)cc1OC` [Compound 5, (E)-2-(3-(3,4-dimethoxyphenyl)acryloyl)-4-fluorophenyl benzoate]?
Answer: Selectivity PrP-5′UTR ([1]; Table 2): Inc.; Selectivity PGL3 5′UTR (PGL3 5′UTR; Table 2): 66-fold; IC50 [2, 6]: 0.194 µM; Decrease αsyn(%) SHSY5Y cells (alpha-synuclein; @ 0.1 μM): 20-50 @ 0.1%

Question: Which results are given for `COc1ccc(/C=C/C(=O)c2cc(F)ccc2OC(=O)c2ccccc2)cc1OC` [Compound 14, 2-[(2E)-3-(3,4-dimethoxyphenyl)prop-2-enoyl]-4-fluorophenyl benzoate]?
Answer: Selectivity PrP-5′UTR ([1]; Table 3): Inc.; Selectivity PGL3 5′UTR (PGL3 5′UTR; Table 3): 66-fold; IC50 [2, 5]: 0.194 µM; Decrease syn(%) SHSY5Y cells (alpha-synuclein; @ 0.1 µM): 20-50 @ 0.1M %

Question: With `COC(=O)C1CC23C=CCN4CCC5(c6ccccc6NC15C2C)C43` (stereo not drawn) [Compound 3, methyl 14-methyl-4,5,11,12-tetrahydro-1H,3a^1H,6H-3a,5a-methanoindolizino[8,1-cd]carbazole-5-carboxylate] as the compound, how does the “inhibition of α-Synuclein protein expression versus β-Syn, γ-Syn, Ferritin, APP and Prion proteins” value (α-Synuclein [3]) read?
Answer: The value was “selectively inhibit”.

Question: And the “α-syn levels (Western blot)” value (α-Synuclein [3])?
Answer: The value was “reduced”.

Question: And the “Selectivity PrP-5′UTR” value ([1]; Table 2)?
Answer: The value was 17-fold.

Question: What about the “Selectivity PrP-5′UTR” value ([1]; Table 3) of the same compound?
Answer: The value was 17-fold.

Question: And the “Decrease αsyn(%) X3 SNCA neurons” value (α-Syn)?
Answer: Its value is 50%.

Question: And the “Selectivity PGL3 5′UTR” value (PGL3 5′UTR; Table 2)?
Answer: The value was 31-fold.

Question: What about the “Selectivity PGL3 5′UTR” value (PGL3 5′UTR; Table 3) of the same compound?
Answer: The value was 31-fold.

Question: What about the IC50 ([2]; read-out: IC50/M (SNCA 5′UTR)) of the same compound?
Answer: Its IC50 is 0.134 µM.

Question: What about the IC50 ([2]; read-out: IC50/μM (SNCA 5′UTR)) of the same compound?
Answer: The IC50 was 0.134 µM.

Question: And the “Decrease αsyn(%) SHSY5Y cells” value (alpha-synuclein; @ 1-10 μM)?
Answer: Its value is 15-19 @ 1-10%.

Question: What about the “Decrease syn(%) SHSY5Y cells” value (alpha-synuclein; @ 1-10M) of the same compound?
Answer: Its value is 15-19 @ 1-10M %.

Question: What about the “Decrease αsyn(%) DA neurons” value (α-Synuclein [4]) of the same compound?
Answer: Its value is 60 @ 1 μM %.

Question: What about the “Decrease syn(%) DA neurons” value (α-Synuclein [4]) of the same compound?
Answer: Its value is 60 @ 1M %.

Question: Which results are given for `CN(C)c1nc(N)nc(CSc2nnnn2-c2cccc3ccccc23)n1` [Compound 10, N^2,N^2-dimethyl-6-(((1-(naphthalen-1-yl)-1H-tetrazol-5-yl)thio)methyl)-1,3,5-triazine-2,4-diamine]?
Answer: inhibition of α-Synuclein protein expression versus β-Syn, γ-Syn, Ferritin, APP and Prion proteins (α-Synuclein [3]): selectively inhibit; α-syn levels (Western blot) (α-Synuclein [3]): reduced; Selectivity PrP-5′UTR ([1]; Table 2): 35-fold; Selectivity PrP-5′UTR ([1]; Table 3): 35-fold; Decrease αsyn(%) X3 SNCA neurons (α-Syn): 25%; Selectivity PGL3 5′UTR (PGL3 5′UTR; Table 2): 34-fold; Selectivity PGL3 5′UTR (PGL3 5′UTR; Table 3): 34-fold; IC50 ([2]; read-out: IC50/M (SNCA 5′UTR)): 1.8 to 3.5 µM; IC50 ([2]; read-out: IC50/μM (SNCA 5′UTR)): 1.8 to 3.5 µM; Decrease αsyn(%) SHSY5Y cells (alpha-synuclein; @ 0.1 μM): 19-38 @ 0.1%; Decrease syn(%) SHSY5Y cells (alpha-synuclein; @ 0.1 µM): 19-38 @ 0.1M %; Decrease αsyn(%) DA neurons (α-Synuclein [4]): 60 @ 1 μM %; Decrease syn(%) DA neurons (α-Synuclein [4]): 60 @ 1M %
